Source: patent US20110256557A1, “IDENTIFYING PARATHYROID HORMONE AGONISTS AND ANTAGONISTS” (DISCOVERYBIOMED, INC., priority 2008, published 2011)

Tests used:
[1] = system: luciferase reporter bearing TCF/LEF binding elements; test: TCF/LEF luciferase reporter assay in UMR-106 cells; type: cell-based, rat
From the text: HEK293, UMR-106 and mouse embryonic fibroblast (MEF) cells were maintained in Dulbecco's Modified Eagle Medium (DMEM) with 10% Fetal Calf Serum (FCS). Mouse Wnt3a conditioned medium (Wnt3a CM) was produced from mouse L cells stably transfected with mouse Wnt3a (American Type Culture Collection; Manassas, Va.) and control conditioned medium (Control CM) was from non-transfected L cells. IgG, LRP6N-IgG, DKK1, Sclerostin, VSVG-LRP6N and Myc-Fz8CRD conditioned media were produced from HEK 293 cells transfected with the individual plasmids. Transfections were carried out using lipofectamine reagent (Invitrogen; Carlsbad, Calif.). Luciferase assays were carried out in either UMR-106 or HEK 293 cells as described previously (Wan et al., Am. J. Pathol. 166:1379-92 (2005)), with 0.3 μg of TCF-Luc reporter plasmid plus 50 ng of Renilla luciferase plasmid (internal control) per well in the 12-well plate. Experiments were repeated at least three times with triplicate for each experiment.

β-catenin = test: Western blot of cytosolic β-catenin in UMR-106 cells; type: cell-based, rat
Method: (§1) Cells were harvested in cavitation buffer (5 mM HEPES, pH 7.4, 3 mM MgCl2, 1 mM EGTA, 250 mM sucrose) containing protease and phosphatase inhibitors and homogenized by nitrogen cavitation (200 p.s.i., for 5 minutes) in a cell disruption bomb (Parr Instrument Co.; Moline, Ill.). The cell homogenate was centrifuged twice at 700 g for 10 minutes to pellet the nuclei. The supernatant was further centrifuged at 100,000 g (Beckman SW50.1 rotor) for 1 hour to separate the membrane and cytosol fractions, and the resulting membrane pellet was washed three times with cavitation buffer before use in the assays (Zhang et al., Biochem. J. 343:541-9 (1999)). Immunoprecipitation and Western blot analysis of cell lysates were performed as described previously (Wan et al., Am. J. Pathol. 166:1379-92 (2005)).

axin-LRP6 binding = test: Co-IP of axin binding to LRP6 in HEK293 cells; type: cell-based
Method: as §1

β-catenin in osteoblasts = test: Immunohistochemistry of β-catenin in bone sections after single-dose injection, rats; type: in vivo, rat; conditions: for positive staining of β-catenin in osteoblasts: five month-old rats, single i.v. dose 40 μg/kg, 8 hours after injection
Method: For the experiments in which rats or mice were administered PTH as single-dose injection, five-month-old male Sprague Dawley rats (Charles River Laboratories; Wilmington, Mass.) or two-month-old male C57BL/J6 mice (Jackson Laboratory; Bar Harbor, Me.) (6 per group) were administered a single dose of either vehicle (1 mM acetic acid in sterile PBS) or PTH (1-34) (Bachem Inc.; Torrance, Calif.) at 40 μg/kg in a volume of 100 μl. In the mouse model, mouse recombinant Wnt3a (R&D Systems; Minneapolis, Minn.) was injected at 25 μg/kg in a volume of 100 μl. All treatments were through bolus intravenous injection via the tail vein. Rats/mice were sacrificed at 0.5, 2, 8 and 24 hours after injection.
Formalin-fixed femur or tibia tissue sections of 5 μm thickness from rats or mice were processed with antigen retrieval and hydrogen peroxide treatment prior to incubation with primary monoclonal antibody specific for β-catenin (BD Biosciences; San Jose, Calif.), goat polyclonal antibody sclerostin (R&D Systems; Minneapolis, Minn.) or rabbit polyclonal phosphorylated LRP6 (Ab1490) for 1 hour at room temperature or overnight at 4° C. Negative controls were obtained by replacing the primary antibodies with irrelevant control isotype IgG. […] In the rat model, numbers of total osteoblasts and numbers of β-catenin- or p-LRP6-positive osteoblasts were counted in three random high power fields at metaphysis subjacent to the epiphyseal growth plates or the diaphyseal hematopoietic bone marrow per specimen, and a total of six specimens in each group were used. In the mouse model, numbers of total osteoblasts and numbers of β-catenin-positive osteoblasts were counted in three random high power fields in a 2-mm square, 1 mm distal to the lowest point of the growth plate in the secondary spongiosa. Numbers of total osteocytes and numbers of sclerostin-positive osteocytes were counted in three random high power fields per trabecular bone section or cortical bone section, and a total of six specimens in each group were used.

[2] = system: TCF/LEF luciferase reporter; test: High-throughput screen validation, TCF/LEF luciferase reporter in osteosarcoma cell line; type: cell-based; conditions: 96-well plate
Method: Osteosarcoma cells were plated in a 96 well plate. The cells were transiently transfected with the TCF/LEF luciferase reporter using LipofectAMINE PLUS (Invitrogen; Carlsbad, Calif.). The cells were incubated overnight at 37° C. in OptiMEM-1 serum-free medium with the transfection reagents. The cells were washed and serum-containing medium was added to the cells for 8 hours. The serum-containing medium was replaced with serum-free medium and the cells were stimulated overnight with PTH and WNT3a. Supernatant from the stimulated cells was collected for detection of osteosclerostin, and the cells were subjected to a luciferase assay as previously described (Wan et al., Am. J. Pathol. 166:1379-92 (2005)).
To determine agonists and antagonists of the additive signaling of the PTH receptor and the WNT receptor, (as well as any co-receptors) in bone cells, a high-throughput screen is designed. […] An osteosarcoma cell line is transiently transfected with a TCF/LEF luciferase reporter. The cells are treated with WNT3a and PTH and luciferase activity is determined (FIG. 46).

LRP6 = LRP6 phosphorylation at PPPSP motifs, western blotting with Ab1490, UMR-106 cells; type: cell-based, rat; conditions: cells not given
Method: as §1
As phosphorylation of LRP6 at the PPPSP motifs plays a crucial role in activating downstream β-catenin signaling by Wnt, whether PTH induces phosphorylation of LRP6 at PPPSP motifs (Mao et al., Mol. Cell. 7:801-9 (2001); Tamai et al., Mol. Cell. 13:149-56 (2004); Davidson et al., Nature 438:867-72 (2005); Zeng et al., Nature 438:873-7 (2005)). Immunoprecipitated LRP6 from extracts of PTH-treated UMR-106 cells were monitored for their phosphorylation, by western blotting, with an antibody that recognizes phosphorylated PPPSP motifs (Ab1490) (Tamai et al., Mol. Cell. 13:149-56 (2004)). […] Phosphorylation of PPPSP motifs is required for axin recruitment from cytoplasm to LRP6 at cell membrane. […] Fz8CRD, a competitive inhibitor of the Wnt receptor Fz (Hsieh et al., Proc. Natl. Acad. Sci. USA 96:3546-55 (1999)), was used to exclude the possibility that these PTH effects are mediated through promotion of Wnts production or sensitization of Wnt-stimulated signaling. […] In contrast, LRP6N blocked PTH-stimulated LRP6 phosphorylation (FIG. 33).

PTH (39-84): C-terminal fragment of PTH; binds PTH1R but does not activate PKA (APLAPRDAGSQRPRKKEDNVLVESHEKSLGEADKADVNVLTKAKSQ; Parathyroid hormone; UniProt P01270 70-115, looked up, fragment)
activating β-catenin signaling (TCF4/LEF luciferase) compared with PTH (1-84) ([1]; UMR-106 cells): much less effective than PTH (1-84)
altering the stability of β-catenin compared with PTH (1-84) (β-catenin): much less effective than PTH (1-84)
inducing axin-LRP6 binding compared with PTH (1-84) (axin-LRP6 binding): much less effective than PTH (1-84)

PTH (1-34): C-terminal-truncated synthetic analog of PTH with an anabolic effect on bone formation in humans (SVSEIQLMHNLGKHLNSMERVEWLRKKLQDVHNF; Parathyroid hormone; UniProt P01270 32-65, looked up, fragment)
positive staining of β-catenin in osteoblasts (β-catenin in osteoblasts; diaphyseal bone marrow): about 90.24±0.68%
positive staining of β-catenin in osteoblasts (β-catenin in osteoblasts; metaphysis subjacent to the epiphyseal growth plates): 99.08±0.57%
expression of β-catenin in preosteoblasts and osteoblasts on the bone surface (β-catenin in osteoblasts; rats, single dose, trabecular bone, within hours): induced

WNT3a
stimulation of the TCF/LEF luciferase reporter, treatment alone [2]: stimulates

O=S(=O)(NCCNC/C=C/c1ccc(Br)cc1)c1cccc2cnccc12 [H89]
effect on Wnt3a-stimulated β-catenin-dependent transcription activity (TCF4/LEF luciferase) ([1]; UMR-106 cells): did not affect
effect on PTH-stimulated TCF/LEF luciferase (transcriptional) activity ([1]; UMR-106 cells treated with PTH): reduced
effect on PTH-induced β-catenin stabilization (β-catenin): reduced
effect on Wnt3a-stimulated β-catenin stabilization (β-catenin): did not affect
effect on Wnt3a-stimulated LRP6 phosphorylation (LRP6): did not affect
effect on binding of axin to LRP6 in cells treated with PTH (axin-LRP6 binding; PTH-treated cells): reduced
